Data reported in ChEMBL document CHEMBL1121748, “Antimycotic imidazoles. 5. Synthesis and antimycotic properties of 1-[[2-aryl-4-(arylalkyl)-1,3-dioxolan-2-yl]methyl]-1H-imidazoles” (1981).

Tests used:
Cryptococcus neoformans = assay: Antifungal activity against Cryptococcus neoformans; type: functional
Phialophora verrucosa = assay: Antifungal activity against Phialophora verrucosa; type: functional
Mucor = assay: Antifungal activity against Mucor species; type: functional
Saprolegnia = assay: Antifungal activity against Saprolegnia species; type: functional
[1] = Ratio of animals cured to that of animals infected, tested in vivo for antifungal activity against cutaneous candidosis in guinea pig; 1/2; type: functional
[2] = system: Staphylococcus haemolyticus; assay: Antibacterial against Staphylococcus hemolyticus; type: functional
Candida albicans = assay: Antifungal activity against Candida albicans; type: functional
Candida tropicalis = assay: Antifungal activity against Candida tropicalis; type: functional
[3] = system: Erysipelothrix rhusiopathiae; assay: Antibacterial activity against Erysipelothrix insidiosa; type: functional
Aspergillus fumigatus = assay: Antifungal activity against Aspergillus fumigatus; type: functional
Trichophyton benhamiae = assay: Antifungal activity against Trichophyton mentagrophytes; type: functional, trychophyton mentagrophytes
Trichophyton rubrum = assay: Antifungal activity against Trichophyton rubrum; type: functional
Streptococcus pyogenes = assay: Antibacterial activity against Streptococcus pyogenes; type: functional
Microsporum canis = assay: Antifungal activity against Microsporum canis; type: functional
Sporothrix schenckii = assay: Antifungal activity against Sporothrix schenck ii; type: functional
[4] = Ratio of animals cured to that of animals infected, tested in vivo for antifungal activity against vaginal candidosis in rat; 2/2
[5] = Ratio of animals cured to that of animals infected, tested in vivo for antifungal activity against cutaneous candidosis in guinea pig; 2/2; type: functional; further: test concentration or dose not given here
[6] = Ratio of animals cured to that of animals […], Tested in vivo for antifungal activity against vaginal candidosis in rat; 0/2; type: functional
[7] = Ratio of animals cured to that of animals […], Tested in vivo for antifungal activity against vaginal candidosis in rat; 1/2; type: functional
[8] = Ratio of animals cured to that of animals infected, tested in vivo for antifungal activity against vaginal candidosis in rat; 0/2; further: test concentration or dose not given here
[9] = Ratio of animals cured to that of animals infected, tested in vivo for antifungal activity against cutaneous candidosis in guinea pig; 0/2; type: functional; further: test concentration or dose not given here
[10] = Ratio of animals cured to that of animals infected, tested in vivo for antifungal activity against vaginal candidosis in rat; 2/4

Row | SMILES | Inhibition (Cryptococcus neoformans) [µg/mL] | Inhibition (Phialophora verrucosa) [µg/mL] | Inhibition (Mucor) [µg/mL] | Inhibition (Saprolegnia) [µg/mL] | Inhibition [2] [µg/mL] | Inhibition (Candida albicans) [µg/mL] | Inhibition (Candida tropicalis) [µg/mL] | Inhibition [3] [µg/mL] | Inhibition (Aspergillus fumigatus) [µg/mL] | Inhibition (Trichophyton benhamiae) [µg/mL] | Inhibition (Trichophyton rubrum) [µg/mL] | Inhibition (Streptococcus pyogenes) [µg/mL] | Inhibition (Microsporum canis) [µg/mL] | Inhibition (Sporothrix schenckii) [µg/mL] | Ratio [5] | Ratio [6] | also measured
1 | Clc1ccc(C2COC(Cn3ccnc3)(c3ccc(Cl)cc3Cl)O2)cc1 (stereo not drawn) | <1 | 100 | 10 | 100 | 10 | 100 | 10 | 1 | <1 | <1 | <1 | 1 | <1 | 10 | – | – | Ratio [1]: 1
2 | Clc1ccc(C2COC(Cn3ccnc3)(c3ccc(Cl)cc3Cl)O2)c(Cl)c1 (stereo not drawn) | <1 | 100 | 10 | 100 | 10 | >100 | >100 | <1 | <1 | <1 | <1 | <1 | 10 | 10 | – | – | Ratio [4]: 2
3 | Fc1ccc(C2COC(Cn3ccnc3)(c3ccc(Cl)cc3)O2)cc1 (stereo not drawn) | 10 | 100 | 10 | 100 | >100 | 100 | 100 | 100 | <1 | <1 | <1 | 10 | <1 | 10 | 1 | 0 | –
4 | Clc1ccc(C2(Cn3ccnc3)OCC(c3ccccc3Cl)O2)cc1 (stereo not drawn) | 10 | 100 | 100 | 10 | 10 | >100 | >100 | 1 | 100 | <1 | <1 | 1 | 10 | >1 | 2 | – | Ratio [7]: 1
5 | Clc1ccc(C2(Cn3ccnc3)OCC(Cc3ccc(-c4ccccc4)cc3)O2)c(Cl)c1 (stereo not drawn) | 100 | >100 | >100 | 100 | 10 | >100 | >100 | 1 | 10 | <1 | <1 | 1 | 10 | 100 | – | 0 | –
6 | Clc1ccc(CC2COC(Cn3ccnc3)(c3ccc(Cl)cc3Cl)O2)cc1 (stereo not drawn) | 1 | 100 | 10 | 100 | 10 | 10 | 10 | <1 | 10 | <1 | <1 | 100 | <1 | 10 | 2 | – | Ratio [8]: 0
7 | Clc1ccc(C2(Cn3ccnc3)OCC(c3ccccc3)O2)c(Cl)c1 (stereo not drawn) | 100 | 100 | 100 | 100 | >100 | 100 | >100 | 10 | <1 | <1 | <1 | 10 | <1 | 10 | – | 0 | –
8 | Clc1ccc(C2(Cn3ccnc3)OCC(c3ccc(Br)cc3)O2)cc1 (stereo not drawn) | <1 | 100 | 10 | <1 | 10 | 10 | 10 | <1 | <1 | <1 | <1 | <1 | <1 | 10 | – | – | Ratio [9]: 0; Ratio [4]: 2
9 | Clc1ccc(CCC2COC(Cn3ccnc3)(c3ccc(Cl)cc3Cl)O2)cc1 (stereo not drawn) | <1 | 100 | 10 | 100 | 10 | 10 | 10 | <1 | 10 | <1 | 1 | <1 | 1 | 1 | – | – | Ratio [9]: 0; Ratio [10]: 2
10 | Clc1ccc(C2(Cn3ccnc3)OCC(Cc3ccccc3)O2)c(Cl)c1 (stereo not drawn) | <1 | 100 | 10 | 10 | 10 | 100 | 10 | <1 | <1 | <1 | <1 | 10 | <1 | 10 | 2 | 0 | –
11 | Cc1ccc(C2(Cn3ccnc3)OCC(c3ccccc3Cl)O2)cc1 (stereo not drawn) | 100 | 100 | 100 | 100 | 100 | 100 | >100 | 1 | 100 | <1 | <1 | <1 | 10 | 10 | – | – | Ratio [9]: 0; Ratio [7]: 0.5
12 | Fc1ccc(C2COC(Cn3ccnc3)(c3ccc(Br)cc3)O2)cc1 (stereo not drawn) | 10 | 100 | <1 | 100 | 100 | 100 | 100 | 10 | <1 | <1 | <1 | <1 | <1 | 10 | – | – | Ratio [1]: 0.5; Ratio [10]: 2
